In patent US20250346584A1, “NOVEL KAPPA OPIOID LIGANDS” (The Scripps Research Institute, priority 2012, published 2025):

Target: kappa opioid receptor (OPRK1) (Homo sapiens (Human), UniProt P41145)
Test: OPRK1 antagonist assay (b-arrestin-2-TEV / b-lactamase reporter cell line, EC80 U-50488 challenge)
Type: cell-based
Conditions: read-out: IC50 nM (% inhib if other than 50%); antagonist mode vs EC80 U-50488; NA = not active at concentrations up to 10 μM

kappa opioid receptor (OPRK1), sequence (P41145 whole entry): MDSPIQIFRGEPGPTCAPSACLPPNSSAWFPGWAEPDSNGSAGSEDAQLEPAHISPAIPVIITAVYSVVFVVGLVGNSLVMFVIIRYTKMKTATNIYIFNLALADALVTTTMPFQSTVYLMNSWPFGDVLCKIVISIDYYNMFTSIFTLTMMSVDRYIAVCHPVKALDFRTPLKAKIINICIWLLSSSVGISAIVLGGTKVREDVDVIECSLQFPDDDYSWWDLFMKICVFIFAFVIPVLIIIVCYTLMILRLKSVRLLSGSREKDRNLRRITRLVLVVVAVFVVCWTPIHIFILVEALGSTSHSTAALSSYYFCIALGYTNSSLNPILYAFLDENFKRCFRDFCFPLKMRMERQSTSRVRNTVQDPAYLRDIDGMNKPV

Cc1nc(-c2cc3ccc(F)cc3nc2N2CCC(NC3CCOCC3)CC2)no1 [compound 482] was tested. Which IC50 did it give?
The IC50 was 75 nM.

Cc1nc(-c2cc3ccc(F)cc3nc2N2CCC(N[C@H]3CCCC[C@@H]3O)CC2)no1 [compound 485] was tested. Which IC50 did it give?
Its IC50 is 673 nM.

For CCOC(=O)c1cc(C#N)c(C)nc1N1CCC(NC2CCCCC2)C(CO)C1 (stereo not shown) [C52], which IC50 is on record?
The IC50 was greater than 20000 nM.

For Cc1ccc2cc(-c3nc(C)no3)c(N3CC[C@@H](NC4CCCCC4)[C@H](O)C3)nc2c1 [compound 227], which IC50 is on record?
The IC50 was 7 nM.

CCc1ccc2nc(N3CCC(NC4CCCCC4)C(CO)C3)c(-c3nc(C)no3)cc2c1 (stereo not shown) [compound 269] was tested. Which IC50 did it give?
Its IC50 is 30 nM.

Which IC50 does the source give for CCOC(=O)c1cc(Br)cnc1N1CCC(NC2CCCCC2)C(CO)C1 (stereo not shown) [compound 69] here?
Its IC50 is 53 nM.

How did the IC50 turn out when COC1CN(c2nc3ccc(C)cc3cc2-c2nc(C)no2)CCC1NC1CCCC1 (stereo not shown) [compound 309] was run?
Its IC50 is 0.5 nM.

How did the IC50 turn out when Cc1noc(-c2cc(Br)cnc2N2CC[C@@H](NC3CCCCC3)[C@H](O)C2)n1 [compound 136] was run?
Its IC50 is 49 nM.

How did the IC50 turn out when COC(=O)c1cc2ccccc2nc1N1CC[C@@H](NC2CCCCC2)[C@H](O)C1 [compound 160] was run?
Its IC50 is 209 nM.

Cc1noc(-c2cc3ccc(F)cc3nc2N2CCC(NC3CCCCC3)CC2)n1 [compound 515] was tested. Which IC50 did it give?
Its IC50 is 7 nM.

For CCOC(=O)c1cc(C(=O)OC)c(C)nc1N1CCC(NC2CCCCC2)C1 (stereo not shown) [compound 104], which IC50 is on record?
The IC50 was 2200 nM.

Which IC50 does the source give for c1cnc(-c2cc3ccccc3nc2N2CCC(NC3CCOCC3)CC2)nc1 [compound 286] here?
The IC50 was 298 nM.

Which IC50 does the source give for CCOC(=O)c1cc(C)c(C)nc1N1CC[C@@H](NC2CCCCC2)[C@H](O)C1 [compound 153] here?
Its IC50 is 191 nM.

For COC(=O)c1cc(Br)cnc1N1CCC(NC2CCCCC2)C(OC)C1 (stereo not shown) [compound 122], which IC50 is on record?
The IC50 was 125 nM.

COC(=O)c1cc(Br)cnc1N1CCC(NC2CCCC2)C(C(=O)OC)C1 (stereo not shown) [compound 114] was tested. Which IC50 did it give?
Its IC50 is 1200 nM.

Which IC50 does the source give for Cc1cnc(N2CCC(NC3CCOCC3)C(CO)C2)c(-c2nc(C)no2)c1 (stereo not shown) [compound 195] here?
The IC50 was 700 nM.

With COC(=O)c1cc(NC(C)=O)cnc1N1CCC(NC2CCCCC2)CC1 [compound 86] as the molecule, how does the IC50 read?
Its IC50 is 628 nM.

Cc1cnc(N2CCC(C)(NC3CCCCC3)CC2)c(-c2nc(C)no2)c1 [compound 357] was tested. Which IC50 did it give?
Its IC50 is 22.3 nM.

Which IC50 does the source give for Cc1noc(-c2nc3ccccc3nc2N2CC[C@@H](NC3CCCCC3)[C@H](O)C2)n1 [compound 188] here?
Its IC50 is 187 nM.

With CCC1CN(c2ncc(C)cc2-c2nc(C)no2)CCC1NC1CCCCC1 (stereo not shown) [compound 183] as the molecule, how does the IC50 read?
Its IC50 is 280 nM.

COC(=O)c1cccnc1N1CC[C@@H](NC2CCCCC2)[C@H](O)C1 [compound 148] was tested. Which IC50 did it give?
The IC50 was 5800 nM.

Which IC50 does the source give for COC(=O)c1cc(Br)cnc1N1C2CCC1CC(NC1CCCCC1)C2 (stereo not shown) [compound 15] here?
The IC50 was 7700 nM.

COC(=O)c1cc(Br)cnc1N1CCC(N(C)C2CCCCC2)C(O)C1 (stereo not shown) [compound 51] was tested. Which IC50 did it give?
The IC50 was 3000 nM.

How did the IC50 turn out when COC(=O)c1cc(Br)cnc1N1CCC(NC2CCCCC2)C(CO)C1 (stereo not shown) [compound 68] was run?
Its IC50 is 40 nM.

Which IC50 does the source give for CCOC(=O)c1noc(-c2cc3cc(C)ccc3nc2N2CCC(NC3CCCCC3)C(CO)C2)n1 (stereo not shown) [C91] here?
Its IC50 is 17700 nM.

Which IC50 does the source give for COC1CN(c2nc3ccc(Cl)cc3cc2-c2nc(C)no2)CCC1NC1CCCCC1 (stereo not shown) [compound 240] here?
The IC50 was 14 nM.

With COC(=O)c1cc(C)cnc1N1CCC(NC2CCCCC2)C(O)C1 (stereo not shown) [compound 110] as the molecule, how does the IC50 read?
The IC50 was 108 nM.

How did the IC50 turn out when CO[C@@H]1CN(c2nc3ccc(C)cc3cc2-c2nc(C)no2)CC[C@@H]1NC1CCOCC1 [compound 522] was run?
Its IC50 is 67 nM.

For CCOC(=O)c1noc(-c2cc3cc(C)ccc3nc2N2CCC(NC3CCCCC3O)CC2)n1 (stereo not shown) [compound 336], which IC50 is on record?
The IC50 was 4360 nM.

With Cc1nc(-c2cc3cc(F)ccc3nc2N2CCC(NC3CCCC3)CC2)no1 [compound 468] as the molecule, how does the IC50 read?
The IC50 was 175 nM.

How did the IC50 turn out when COC(=O)c1cc(Br)cnc1N1CC(NC2CCCCC2)C1 [compound 67] was run?
Its IC50 is 1400 nM.

How did the IC50 turn out when COC(=O)c1cc(Br)cnc1N1CCCC(NC2CCCCC2)CC1 (stereo not shown) [compound 66] was run?
Its IC50 is 1700 nM.

How did the IC50 turn out when COC(=O)c1cc(I)cnc1N1CCC(NC2CCCCC2)C(O)C1 (stereo not shown) [compound 126] was run?
Its IC50 is 112 nM.

Cc1noc(-c2cc(C)c(C)nc2N2CCC(NC3CCCCC3)CC2)n1 [compound 221] was tested. Which IC50 did it give?
The IC50 was 24 nM.

With CO[C@H]1CN(c2nc3cccc(F)c3cc2-c2nc(C)no2)CC[C@H]1NC1CCCCC1 [compound 520] as the molecule, how does the IC50 read?
Its IC50 is 19 nM.

With COC(=O)c1cc(I)cnc1N1CCC(NC2CCCCC2OC)C(CO)C1 (stereo not shown) [compound 91] as the molecule, how does the IC50 read?
Its IC50 is 198 nM.

Which IC50 does the source give for CCOC(=O)/C=C/c1cnc(N2CCC(NC3CCCCC3)CC2)c(C(=O)OC)c1 [C59] here?
Its IC50 is greater than 20000 nM.

How did the IC50 turn out when CCOC(=O)c1cc2cc(C)ccc2nc1N1CCC(NC2CCCCC2)C(OC)C1 (stereo not shown) [compound 281] was run?
Its IC50 is 30 nM.

For Cc1cc(-c2nc(C)no2)c(N2CC[C@@H](NC3CCCCC3)[C@H](O)C2)nn1 [compound 175], which IC50 is on record?
The IC50 was 46 nM.

With CNC(=O)c1cc(Br)cnc1N1CCC(NC2CCCCC2)CC1 [compound 87] as the molecule, how does the IC50 read?
The IC50 was 19000 nM.

With COC(=O)c1cc(I)cnc1N1CCC(NC2CCCCCC2)C(CO)C1 (stereo not shown) [compound 75] as the molecule, how does the IC50 read?
The IC50 was 36 nM.

For COC(=O)c1cc(Br)cnc1N1CCC(NC2CCCCCCC2)CC1 [compound 21], which IC50 is on record?
Its IC50 is 317 nM.

Cc1ccc2nc(N3CCC(NC4CCCCC4)C(CO)C3)c(-c3nc(C)no3)cc2c1 (stereo not shown) [compound 215] was tested. Which IC50 did it give?
Its IC50 is 3 nM.

Which IC50 does the source give for COC1CN(c2nc3ccc(F)cc3cc2-c2nc(C)no2)CCC1NC1CCCCC1 (stereo not shown) [compound 242] here?
Its IC50 is 26 nM.

Which IC50 does the source give for COC(=O)c1cc(Br)cnc1N1CCC(NC2CCOCC2)C(O)C1 (stereo not shown) [compound 61] here?
The IC50 was 54 nM.

Which IC50 does the source give for COC(=O)c1cc(Br)cnc1N1CC2CN(C3CCCC3)CC2C1 (stereo not shown) [compound 50] here?
Its IC50 is 1000 nM.

CC(=O)c1cc(Br)cnc1N1CC[C@@H](NC2CCCCC2)[C@H](O)C1 [compound 127] was tested. Which IC50 did it give?
Its IC50 is 33 nM.

COC(=O)c1cc(Br)cnc1N1CCC(NC2C3CC4CC(C3)CC2C4)CC1 (stereo not shown) [compound 11] was tested. Which IC50 did it give?
Its IC50 is 2800 nM.

How did the IC50 turn out when CC(C)OC(=O)c1cc(Br)cnc1N1CC[C@@H](NC2CCCCC2)[C@H](O)C1 [compound 135] was run?
The IC50 was 1630 nM.

With Cc1noc(-c2nc3ccccc3nc2N2CCC(NC3CCCC3)C(CO)C2)n1 (stereo not shown) [compound 202] as the molecule, how does the IC50 read?
Its IC50 is 187 nM.

COC1CN(c2nc3ccc(C)cc3cc2-c2nc(C)no2)CCC1NC1CCCCC1F (stereo not shown) [compound 249] was tested. Which IC50 did it give?
The IC50 was 9 nM.

With CCCC(C)NC1CCN(c2nc3ccc(C)cc3cc2-c2nc(C)no2)CC1 (stereo not shown) [compound 351] as the molecule, how does the IC50 read?
Its IC50 is 3 nM.

Cc1cnc(N2CCC(NC3CCCCCC3)C(CO)C2)c(-c2nc(C)no2)c1 (stereo not shown) [compound 197] was tested. Which IC50 did it give?
The IC50 was 85 nM.

Which IC50 does the source give for Cc1ccc2nc(N3CCC(NCC(C)O)CC3)c(-c3nc(C)no3)cc2c1 (stereo not shown) [compound 360] here?
The IC50 was 8 nM.

How did the IC50 turn out when COC(=O)c1cc(Br)cnc1N1CCC(N[C@@H]2CCCC[C@H]2O)CC1 [compound 1] was run?
Its IC50 is 231 nM.

Which IC50 does the source give for Cc1noc(-c2cc3ccccc3nc2N2CCC(NC3CCCOC3)CC2)n1 (stereo not shown) [compound 235] here?
The IC50 was 4 nM.

For COC(=O)c1cccnc1N1CCC(NC2CCCCCC2)C(O)C1 (stereo not shown) [compound 55], which IC50 is on record?
Its IC50 is 1800 nM.

How did the IC50 turn out when CCOC(=O)c1cc(Br)cnc1N1CCC(NC2CCCCC2)CC1 [compound 38] was run?
Its IC50 is 128 nM.

Which IC50 does the source give for COC(=O)c1cc(Br)cnc1N1CCC(NC2CCCC2)C(CO)C1 (stereo not shown) [compound 79] here?
Its IC50 is 25 nM.

Which IC50 does the source give for COC(=O)c1cccnc1N1CCC(NC2CCCCC2C)C(O)C1 (stereo not shown) [compound 53] here?
Its IC50 is 5600 nM.

For COC(=O)c1cc(Br)cnc1N1CCC(NC2CCC(C)CC2)CC1 (stereo not shown) [compound 16], which IC50 is on record?
The IC50 was 536 nM.

COC(=O)c1cc(Br)cnc1N1CCC(NC2CC3CCC2C3)CC1 (stereo not shown) [compound 28] was tested. Which IC50 did it give?
Its IC50 is 387 nM.

How did the IC50 turn out when Cc1cnc(N2CCC(NC3CCCCC3)C(CO)C2)c(-c2nc(C)no2)c1 (stereo not shown) [compound 152] was run?
Its IC50 is 30 nM.

COC(=O)c1cc(I)cnc1N1CCC(NC2CCCCC2)CC1 [compound 36] was tested. Which IC50 did it give?
Its IC50 is 79 nM.
